Series [1] relates to ascitic fluid type liver cancer H22. Put plainly: survival of mice with transplanted ascitic fluid type liver cancer H22. It is filed as in vivo, BALB/c mice. The conditions noted are these: 20mg/kg i.p. once per day from the day after transplanting, Kaplan-meier mean. As for the experimental part:
Intraperitoneal injection, once per day. […] The cyclophosphamide groups were treated on the next day after transplanting the cancer cells. Treatment of all groups with testing substance lasted for 30 days or until the animal died unless otherwise specified.
Stock H22 cells were incubated in DMEM/F12 medium supplemented with 10% fetal bovine serum, 37°C/5%CO2 for 72 hrs, then washed 3-4 times with Hank's solution at room temperature. Adjust cell concentration to 1-2 x 10^9 per litre with Hank's solution. 0.2ml of the cell suspension was implanted to the abdominal cavity of several BALB/c mice for 6-8 days. The mice were killed by cervical vertebra dislocation. Ascitic fluid of the mice was collected asceptically and the cell concentration adjusted to 1 x 10^6 per ml with Hank's solution. 0.2ml of the cell suspension was implanted into the abdominal cavity of healthy mice to generate the H22 carrying mouse model for ascitic fluid type liver cancer. Administration of test substance started as described in section Method 1. Survival data of the mice was recorded. If the animal survived longer than the experiment, the survival days was recorded as the duration of the experiment. […] The survival index was calculated according to the following formula: Survival index = (mean survival days of treatment group-mean survival days of control group)ömean survival days of control group x 100% [formula]

The subject of another series is L1210 leukemia. Put plainly: survival of mice with transplanted L1210 leukemia. Format: in vivo, DBA/2 mice. The conditions noted are these: 20mg/kg i.p. once per day from the day after transplanting, Kaplan-meier mean. The source says: (§1) Intraperitoneal injection, once per day. […] Treatment of all groups with testing substance lasted for 30 days or until the animal died unless otherwise specified.
The mice were then killed by cervical vertebra dislocation and their ascitic fluid collected aseptically. […] Treatment started in the testing animals as described in section Method 1. Mean survival day was obtained by the Kaplan-meier method in the Survival option of the SPSS software. If the animal survived longer than the experiment, the survival days was entered as the duration of the experiment.

The next series has as its system S180 sarcoma cells. Put plainly: growth of transplanted S180 sarcoma in mice. It is filed as in vivo, BALB/c mice. The conditions noted are these: 20mg/kg i.p. once per day from the day after transplanting. Here is the method: as §1
The mice were killed by cervical vertebra dislocation. Vigorously growing and non-disrupted tumor masses were harvested and washed clean with sterile saline. The tissue was dispersed in saline to a homogenous cell suspension, in a ratio of 1 g tissue to 4 ml saline. […] Administration of test substance treatment started as described in section Method 1.
After the phagocytosis index study, the mice were killed by cervical vertebra dislocation. The liver, spleen, and cancer tissue were dissected, blotted dry, and weighed.

Series [2] has as its system Masugi nephritis rat model. The experiment in a line: Masugi nephritis rat model. Format: in vivo, Sprague Dawley (SD) rats. Particulars: peptides 50µg/kg/day. The source says: The anti-serum was then exuded and isolated.
Whole blood was collected from 15 healthy SD rats.
3. […] Treatment started on the day of induction.
4. […] Adequate drinking water was supplied.

Regarding `O=P1(N(CCCl)CCCl)NCCCO1` (centres unmarked) [Cyclo-phos phamide, Cyclophosphamide], the Survival days came out at 24.7 ± 10.2 days in series [1] and 24.0 ± 5.3 days in the series with L1210 leukemia. In the series on S180 sarcoma cells, this compound registered a Tumor weight of 0.68 ± 0.32 g.
As to `C[C@]12CCC(=O)C=C1CC[C@@H]1[C@@H]2[C@@H](O)C[C@@]2(C)[C@H]1CC[C@]2(O)C(=O)CO` [hydrocortisone, Hydrocortisone], the “spleen index (mean spleen weight / mean body weight)” value in series [2] (after three weeks of treatment, hydrocortisone 3.3mg/kg/day (halved after first week) i.p.) was 4.5±1.4 x10-3. For the same compound, the growth rate result in series [2] (nephritis rats, hydrocortisone 3.3mg/kg/day i.p.) is listed as “slower growth rate than normal”.

The values above are taken from patent EP1790655B1, “Biologically active peptides” (CMS Peptides Patent Holding Company Limited, priority 2001, dated 2003).
